Data published in patent US6972287B1, “Method of inhibiting amyloid protein aggregation and imaging amyloid deposits” (Pfizer Inc., priority 1999, dated 2005).
Where “and” joins values, the source holds several entries; their conditions need not be identical. Equal values may be shown once.

Legend:
Aβ(1-40) [1] = biological target: T1, Aβ(1-40) (Homo sapiens, UniProt P05067); assay: BASSR (Beta-Amyloid Self-Seeding Radioassay), inhibitors of self-seeded amyloid fibril growth; type: biochemical; details: 30 μM soluble Aβ(1-40) + 125I-labeled Aβ(1-40), 37° C., 3 to 5 hours; replicate values; letter = synthetic lot; ppt = precipitate; V-shaped = inhibition followed by precipitation
T1 construct: […]; purchased Bachem, Torrance, Calif
Method in brief: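 Self-seeded growth of ^125I-labeled Aβ(1-40) fibrils in 50 mM sodium phosphate pH 7.5, 100 mM NaCl, 0.02% NaN3, 1 M urea; compound (3-fold dilutions from 100 μM final) preincubated 10 min on ice, then 3–5 h at 37° C. Fibrils collected by vacuum filtration on 0.2 μm filters and counted for radioactivity.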

Aβ(1-40) [2] = biological target: T1, Aβ(1-40); assay: BASST (Beta-Amyloid Self-Seeding, Thioflavin T), inhibitors of self-seeded amyloid fibril growth; type: biochemical; details: 30 μM soluble Aβ(1-40), 37° C., 3 to 5 hours, thioflavin T fluorescence; replicate values; letter = synthetic lot; read-out: BASST (IC50 = μM)
Method in brief: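 Self-seeded Aβ(1-40) fibril growth was run in 50 mM sodium phosphate pH 7.5, 100 mM NaCl, 0.02% NaN3, 1 M urea. Compounds were tested in 3-fold serial dilutions (top 100 μM final): 10 min on ice, then 3–5 h at 37 °C. Fibrils were read by 5 μM thioflavin T fluorescence (ex 440/em 485 nm).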

Aβ (1-40) peptide = biological target: T2, Aβ (1-40) peptide (Homo sapiens, UniProt P05067); assay: BAPA (Beta-Amyloid Peptide Aggregation, pH 6.0, filtration); type: biochemical; details: Aβ (1-40) 33 μM, pH 6.0, 2 to 4 hours at room temperature; replicate values; letter = synthetic lot
T2 construct: 10 μL 0.5 mg/mL Aβ (1-40) peptide in 20% HFIP
Method in brief: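 Aggregation of human Aβ (1-40) peptide was measured in an endpoint filtration assay. The peptide was first reduced to monomer with hexafluoroisopropanol (HFIP), then used at 33 μM so it would aggregate at pH 6.0, and incubated for 2 to 4 hours at room temperature. Filter plates were washed with 100 μL phosphate buffer, impregnated with Meltilex, and counted on a Microbeta counter with background correction.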

Aβ (1-42) = biological target: T3, Aβ (1-42) (Homo sapiens, UniProt P05067); assay: BATYM assay (Aβ (1-42) aggregation, Thioflavin T fluorescence); type: biochemical; details: Aβ 1-42 final concentration 100 μM, 37° C., 1 day, letter = synthetic lot
T3 construct: Required Aβ (1-42) (California Peptide) was dried from its hexafluoroisopropanol (HFIP) stock solution; purchased California Peptide
Method in brief: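 Aβ (1-42) (100 μM final, PBS pH 7.4 from DMSO) incubated with compound at 37° C. for 1 day. Aggregation read by ThT (30 μM, glycine-NaOH pH 8.5) fluorescence, ex 440/em 485 nm; inhibition as fluorescence reduction corrected for compound-alone signal, IC50 by curve fitting from two experiments in triplicate.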

T2 sequence (P05067 672-711 limits assumed): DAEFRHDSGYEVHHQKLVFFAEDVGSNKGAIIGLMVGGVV
T1 sequence (P05067 672-711 limits assumed): as above
T3 sequence (P05067 672-713 limits assumed): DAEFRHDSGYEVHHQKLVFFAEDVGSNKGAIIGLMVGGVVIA

IC50 (Aβ(1-40) [1]) | IC50 (Aβ(1-40) [2]) | IC50 (Aβ (1-40) peptide) | IC50 (Aβ (1-42)) | melting point | Compound
> 100 µM (2×) and 30 µM | 4 µM (2×) and 5 µM and 10 µM | 63 µM and > 60 µM | 84 µM and 73.9 µM | 140 to 143 °C | O=C(O)c1ccccc1Nc1ccc(CCc2ccccc2Cl)cc1 [Example 126, 2-{4-[2-(2-Chloro-phenyl)-ethyl]-phenylamino}-benzoic acid]
> 100 µM | 10 µM | 67 µM | > 100 µM | 218 to 219 °C | O=C(O)c1ccccc1Nc1ccc(CCc2ccccc2O)cc1 [Example 127, 2-{4-[2-(2-Hydroxy-phenyl)-ethyl]-phenylamino}-benzoic acid]
> 100 µM | 10 µM | > 60 µM | 93.5 µM | 137 to 138 °C | O=C(O)c1cccc(Nc2ccc(CCc3ccc(Cl)c(Cl)c3)cc2)c1 [Example 131, 3-{4-[2-(3,4-Dichloro-phenyl)-ethyl]-phenylamino}-benzoic acid]
> 100 µM | > 100 µM | > 60 µM | > 100 µM | 146 to 147 °C | COc1cc(CCc2ccc(Nc3ccccc3C(=O)O)cc2)cc(OC)c1OC [Example 133, 2-{4-[2-(3,4,5-Trimethoxy-phenyl)-ethyl]-phenylamino}-benzoic acid]
> 100 µM | 2 µM | > 60 µM | 36.5 µM | 153 to 154 °C | O=C(O)c1ccccc1Nc1ccc(CCc2ccc(Oc3ccccc3)cc2)cc1 [Example 134, 2-{4-[2-(4-Phenoxy-phenyl)-ethyl]-phenylamino}-benzoic acid]
> 100 µM | 1.2 µM | > 60 µM | 31.2 µM | 106 to 108 °C | O=C(O)c1ccccc1Nc1ccc(CCCCCc2ccc(Cl)c(Cl)c2)cc1 [Example 135, 2-{4-[5-(3,4-Dichloro-phenyl)-pentyl]-phenylamino}-benzoic acid]
15 µM and 25 µM | 40 µM | 114 µM | > 100 µM | 264 to 266 °C | O=C(O)c1ccc(Nc2ccc(CCc3ccc(Cl)c(Cl)c3)cc2)c(C(=O)O)c1 [Example 144, 4-{4-[2-(3,4-Dichloro-phenyl)-ethyl]-phenylamino}-isophthalic acid]
10 µM and 40 µM and 30 µM | 4 µM | 9 µM | 56.8 µM | 134 to 136 °C | O=C(O)c1ccc(C(F)(F)F)cc1Nc1ccc(CCc2ccc(Cl)c(Cl)c2)cc1 [Example 145, 2-{4-[2-(3,4-Dichloro-phenyl)-ethyl]-phenylamino}-4-trifluoromethyl-benzoic acid]
> 100 µM | 10 µM | > 60 µM | 93.4 µM | 128 to 131 °C | CN(C)c1ccc(N(C)c2ccc(CCc3ccc(Cl)c(Cl)c3)cc2)c(C(=O)O)c1 [Example 147, 2-({4-[2-(3,4-Dichloro-phenyl)-ethyl]-phenyl}-methyl-amino)-5-dimethylamino-benzoic acid]

Continued, compound first:

Compound | IC50 (Aβ(1-40) [1]) | IC50 (Aβ(1-40) [2]) | IC50 (Aβ (1-40) peptide) | IC50 (Aβ (1-42)) | melting point
O=C(O)c1cccnc1Nc1ccc(CCc2ccc(Cl)c(Cl)c2)cc1 [Example 72, 2-{4-[2-(3,4-Dichloro-phenyl)-ethyl]-phenylamino}-nicotinic acid] | 40 µM and 15 µM and 12 µM | 2 µM and 2.5 µM | > 60 µM | 74.8 µM | 168 to 171 °C
O=C(O)c1cc([N+](=O)[O-])ccc1Nc1ccc(CCc2cccc(Cl)c2)cc1 [Example 73, 2-{4-[2-(3-Chloro-phenyl)-ethyl]-phenylamino}-5-nitro-benzoic acid] | 25 µM and 35 µM and 40 µM | 0.3 µM | > 60 µM | 9.43 µM | 192.5 to 194.5 °C
O=C(O)c1cc([N+](=O)[O-])ccc1Nc1ccc(CCc2ccc(Cl)cc2)cc1 [Example 74, 2-{4-[2-(4-Chloro-phenyl)-ethyl]-phenylamino}-5-nitro-benzoic acid] | 6 µM and 18 µM (2×) and 19 µM | 0.3 µM and 0.5 µM | > 60 µM | 8.36 µM | 210 to 212 °C
Cc1ccc(Nc2ccc(CCc3ccc(Cl)c(Cl)c3)cc2)c(C(=O)O)c1 [Example 75, 2-{4-[2-(3,4-Dichloro-phenyl)-ethyl]-phenylamino}-5-methyl-benzoic acid] | > 100 µM | 2.2 µM | > 60 µM | 46.2 µM | 153 to 160 °C
O=C(O)c1cc([N+](=O)[O-])ccc1Nc1ccc(CCc2ccccc2Cl)cc1 [Example 76, 2-{4-[2-(2-Chloro-phenyl)-ethyl]-phenylamino}-5-nitrobenzoic acid] | 3 µM | 0.5 µM | > 60 µM | 8.59 µM | 236 to 238 °C
O=C(O)c1c(Nc2ccc(CCc3ccc(Cl)c(Cl)c3)cc2)cccc1C(F)(F)F [Example 78, 2-{4-[2-(3,4-Dichloro-phenyl)-ethyl]-phenylamino}-6-trifluoromethyl-benzoic acid] | 70 µM | 0.1 µM | 8 µM | > 100 µM | 130 to 132 °C
CN(C)c1ccc(Nc2ccc(CCc3ccc(Cl)c(Cl)c3)cc2)c(C(=O)O)c1 [Example 80, 2-{4-[2-(3,4-Dichloro-phenyl)-ethyl]-phenylamino}-5-dimethylamino-benzoic acid] | > 100 µM | 4 µM | > 60 µM | 24.8 µM | 75 to 80 °C
O=C(O)c1ccccc1Nc1ccc(CCc2cc(Cl)cc(Cl)c2)cc1 [Example 81, 2-{4-[2-(3,5-Dichloro-phenyl)-ethyl]-phenylamino}-benzoic acid] | > 100 µM | 15 µM | 73 µM | 48.4 µM | 191 to 194 °C
O=C(O)c1ccccc1Nc1ccc(CCc2ccc(F)c(F)c2)cc1 [Example 122, 2-{4-[2-(3,4-Difluoro-phenyl)-ethyl]-phenylamino}-benzoic acid] | > 100 µM | 2 µM | > 60 µM | > 100 µM | 184 to 185 °C
COc1ccc(CCc2ccc(Nc3ccccc3C(=O)O)cc2)c(OC)c1 [Example 125, 2-{4-[2-(2,4-Dimethoxy-phenyl)-ethyl]-phenylamino}-benzoic acid] | 82 µM | 10 µM | 80 µM | > 100 µM | 180 to 181 °C
